Entries after “also recorded” stand apart in the source; their conditions may differ.
Experiments:
Female Wistar rats = details: neuroleptic alone; olanzapine 8 mg/kg sc, clozapine 8 mg/kg sc, haloperidol 4 mg/kg ip; oral glucose load 2 g/kg; FIG. 1A
Procedure: Female Wistar rats (weight range 250-300 g upon arrival) are obtained from Janvier (Le Genest Saint Isle-France, France) and housed in pairs or three together at a temperature of 21±4° C. and 55±20% humidity. The animals are maintained on a reverse phase light-dark cycle (lights off for 8 h from 09.30-17.30 h) during which time the room is illuminated by red light. The animals are housed and have free access to a fat diet and tap water until the night before the oral glucose tolerance test (OGTT) experiment.
An oral glucose tolerance test is performed in overnight fasted animals. A pre-dose blood sample (t0-90 min) is obtained by tail bleed. Blood glucose is measured with a glucometer, and the animals are randomized for blood glucose (n=8/group). Subsequently, the groups receive a single oral administration of either vehicle or a neuroleptic agent in the presence or absence of an SGLT-2 inhibitor. The animals receive an oral glucose load (2 g/kg) 60 min after compound administration. Blood glucose is measured in tail blood 15 min, 30 min, 60 min, 120 min, and 180 min after the glucose challenge. Glucose excursion is quantified by calculating the reactive glucose AUC. The data are presented as mean±SEM.

[1] = metformin on its own, in the diabetic; cited from earlier work

SMILES | glucose tolerance in OGTT (Female Wistar rats) | average improvement in the HbA1c value [1]
O=C(CCCN1CCC(O)(c2ccc(Cl)cc2)CC1)c1ccc(F)cc1 [haloperidol, 4-[4-(4-chlorophenyl)-4-hydroxy-1-piperidyl]-1-(4-fluorophenyl)-butan-1-one] | impaired glucose tolerance; also recorded: worsening of the OGTT was less pronounced | 
CN1CCN(C2=Nc3cc(Cl)ccc3Nc3ccccc32)CC1 [Clozapine, 8-chloro-11-(4-methylpiperazin-1-yl)-5H-dibenzo[b,e][1,4]diazepine] | impaired glucose tolerance | 
CN(C)C(=N)N=C(N)N [metformin] |  | 1.0-1.5%

Reference: patent US20240277729A1, “METHODS OF TREATMENT AND PHARMACEUTICAL COMPOSITIONS USING AN SGLT-2 INHIBITOR AND A NEUROLEPTIC AGENT” (Boehringer Ingelheim International GmbH, priority 2011, published 2024)
